Assay results published in publication PMC8772704, “Quantification of Fosfomycin in Combination with Nine Antibiotics in Human Plasma and Cation-Adjusted Mueller-Hinton II Broth via LCMS” (Antibiotics, 2022).

What was measured:
[1] = Autosampler stability at 4 °C of extracted antibiotic-spiked plasma/CAMHB samples; details: for Mean accuracy (%), Table S8 / Mean accuracy (%), Table S10: CAMHB extracted samples; for Mean accuracy (%), Table S8 / Mean accuracy (%), Table S7: 7 h autosampler 4 °C; for Mean accuracy (%), Table S10 / Mean accuracy (%), Table S9: 15 h autosampler 4 °C; for Mean accuracy (%), Table S7 / Mean accuracy (%), Table S9: plasma extracted samples
Experimental: (§1) The stability of fosfomycin in combination with other antibiotics in plasma/CAMHB was evaluated under various operational conditions. Spiked plasma/CAMHB samples were evaluated at 7 h and 15 h in the autosampler at 4 °C. Long-term stability was evaluated up to 4 weeks of antibiotic-spiked plasma/CAMHB samples at LQC, MQC, and HQC concentrations stored at −30 °C and −80 °C.

[2] = Plasma concentrations in four patients on fosfomycin-based combination therapy (pilot clinical feasibility study, LCMS/MS); details: Patient 004; meropenem 2 g every 8 h as a 3-h infusion
Experimental: For 20 µL of plasma/CAMHB sample, 20 µL of water and 20 µL of stable-isotope as internal standard (IS) were added and vortexed. 180 µL of acetonitrile was added for protein precipitation and subsequently removed by centrifugation (12,700 rpm for 10 min at 25 °C). Finally, 15 µL of the supernatant was diluted with 225 µL formic acid in water (0.1% v/v), and 10 µL was injected for LCMS/MS analysis. For the calibration curve and QCs, 20 µL of the corresponding antibiotic standard working solution was added instead of water.
Samples were analyzed using a Nexera X2 LCMS 8060 system (Shimadzu, Kyoto, Japan). […] Electrospray ionization employing positive and negative ion mode with multiple reaction monitoring was used for analyte quantification (Table S1). Data were acquired and analyzed using Shimadzu LabSolutions (Version 5.97).
The assay method described in this paper has been applied to a pilot clinical feasibility study to evaluate the proportion of patients with sub-optimal β-lactam levels and the need for dose adjustments in infected patients with unpredictable pharmacokinetics. We described a case series of four patients where they received in vitro guided antibiotic combination therapy using a fosfomycin-based combination regimen to treat a carbapenem-resistant Gram-negative bacteria infection. These four patients were recruited into the BLAST-2 study as the combination regimen contains a β-lactam antibiotic. In this case series, two were undergoing intermittent hemodialysis, and two patients had normal renal function. In the two patients on hemodialysis, they were on a dosing regimen of 8 g of fosfomycin on dialysis days (3 g at least 4 h before dialysis session and 5 g after completion of dialysis). The remaining two patients received 8 g of fosfomycin given every 8 h as a prolonged infusion.
Blood samples (2–3 mL from an indwelling catheter) were collected four times over a dosing interval of the β-lactam dosing regimen and centrifuged (10 min at 3000 rpm) (Eppendorf 5425R). The resultant plasma was stored (within 15 min of collection) at −80 °C until assay.

[3] = Long-term storage stability of antibiotics in combination with fosfomycin spiked in plasma/CAMHB (−30 °C, −80 °C); format: physicochemical; details: for Mean accuracy (%), Table S17 / Mean accuracy (%), Table S16 / Mean accuracy (%), Table S18: CAMHB; for Mean accuracy (%), Table S17 / Mean accuracy (%), Table S16 / Mean accuracy (%), Table S18 / Mean accuracy (%), Table S11 / Mean accuracy (%), Table S13 / Mean accuracy (%), Table S12 / Mean accuracy (%), Table S14: combination with fosfomycin; for Mean accuracy (%), Table S17 / Mean accuracy (%), Table S13: 2 weeks at -80 °C; for Mean accuracy (%), Table S16 / Mean accuracy (%), Table S12: 4 weeks at -30 °C; for Mean accuracy (%), Table S18 / Mean accuracy (%), Table S14: 4 weeks at -80 °C; for Mean accuracy (%), Table S11 / Mean accuracy (%), Table S13 / Mean accuracy (%), Table S12 / Mean accuracy (%), Table S14: plasma; for Mean accuracy (%), Table S11: 2 weeks at -30 °C
Experimental: as §1

[4] = 32-day stability of stock solutions stored at −80 °C; format: physicochemical; details: stock solution stored at -80 °C; peak area Day 32 vs Day 1
Experimental: Stability of stock solutions
All stock solutions of antibiotics and their corresponding stable-isotope variants were measured prior to cold storage at -80 °C and tested at 32 days later.
Stability was determined by comparing the peak area of each drug between its Day 1 and Day 32 measurement. Acceptable criteria for stability was met if the […]

C[C@@H](O)[C@H]1C(=O)N2C(C(=O)O)=C(S[C@@H]3CN[C@H](C(=O)N(C)C)C3)[C@H](C)[C@H]12 [Meropenem, meropenem]
Mean accuracy (%), Table S8 ([1]; HQC (nominal as E15)): 107.7% | Mean accuracy (%), Table S8 ([1]; LQC (nominal as E13)): 104.0% | Mean accuracy (%), Table S8 ([1]; MQC (nominal as E14)): 102.6% | Mean accuracy (%), Table S10 ([1]; HQC (nominal as E15)): 106.9% | Mean accuracy (%), Table S10 ([1]; LQC (nominal as E13)): 107.7% | Mean accuracy (%), Table S10 ([1]; MQC (nominal as E14)): 100.8% | Mean accuracy (%), Table S7 ([1]; HQC: nominal mg/L CAZ 150, FEP 200, PIP 250, ATM 300, MEM 200, DOR 175, LVX 30, CEFT 250, TZB 87.5, TGC 20, AVI 30, FOF 1000): 99.6% | Mean accuracy (%), Table S7 ([1]; LQC: nominal 1 mg/L (levofloxacin, avibactam 0.5; fosfomycin 10)): 110.0% | Mean accuracy (%), Table S7 ([1]; MQC: nominal mg/L CAZ 75, FEP 100, PIP 150, ATM 150, MEM 100, DOR 87.5, LVX 15, CEFT 125, TZB 43.75, TGC 10, AVI 15, FOF 500): 95.5% | Mean accuracy (%), Table S9 ([1]; HQC (nominal as E15)): 97.9% | Mean accuracy (%), Table S9 ([1]; LQC (nominal as E13)): 109.1% | Mean accuracy (%), Table S9 ([1]; MQC (nominal as E14)): 98.9% | Mean total plasma concentration (range) [2]: 6.7 to 23.0 mg/L | Stability verdict (within ±15% of nominal) ([3]; CAMHB samples stored at −30 °C, 4 weeks): instability | Mean accuracy (%), Table S17 ([3]; HQC (nominal as E15)): 99.6% | Mean accuracy (%), Table S17 ([3]; LQC (nominal as E13)): 104.3% | Mean accuracy (%), Table S17 ([3]; MQC (nominal as E14)): 97.3% | Mean accuracy (%), Table S16 ([3]; HQC (nominal as E15)): 66.1% | Mean accuracy (%), Table S16 ([3]; LQC (nominal as E13)): 60.1% | Mean accuracy (%), Table S16 ([3]; MQC (nominal as E14)): 63.5% | Mean accuracy (%), Table S18 ([3]; HQC (nominal as E15)): 97.4% | Mean accuracy (%), Table S18 ([3]; LQC (nominal as E13)): 97.9% | Mean accuracy (%), Table S18 ([3]; MQC (nominal as E14)): 95.4% | Mean accuracy (%), Table S11 ([3]; HQC (nominal as E15)): 93.3% | Mean accuracy (%), Table S11 ([3]; LQC (nominal as E13)): 86.6% | Mean accuracy (%), Table S11 ([3]; MQC (nominal as E14)): 89.7% | Mean accuracy (%), Table S13 ([3]; HQC (nominal as E15)): 105.4% | Mean accuracy (%), Table S13 ([3]; LQC (nominal as E13)): 104.2% | Mean accuracy (%), Table S13 ([3]; MQC (nominal as E14)): 95.0% | Mean accuracy (%), Table S12 ([3]; HQC (nominal as E15)): 91.8% | Mean accuracy (%), Table S12 ([3]; LQC (nominal as E13)): 106.1% | Mean accuracy (%), Table S12 ([3]; MQC (nominal as E14)): 93.8% | Mean accuracy (%), Table S14 ([3]; HQC (nominal as E15)): 96.1% | Mean accuracy (%), Table S14 ([3]; LQC (nominal as E13)): 101.8% | Mean accuracy (%), Table S14 ([3]; MQC (nominal as E14)): 95.2% | 32 Day Stability (%) [4]: 100.48%
